Results as given in PubChem BioAssay (NCI).
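Tested at 5 concentrations; 48 h exposure; 96-well plates; endpoints linearly interpolated, else capped at highest concentration. TGI marks complete inhibition of growth.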

Tests used:
MDA-N = assay: inhibition of tumour cell growth, NCI panel, 48 h
RXF-631 renal = assay: inhibition of tumour cell growth, NCI panel, 48 h

Row | SMILES | TGI (MDA-N) | TGI (RXF-631 renal)
1 | CCOC(=O)c1csc(NC(=O)C(C)N2CCCCC2)n1 (stereo not given) | > 100 µM | –
2 | COc1ccnc2c1C(=O)c1nc3ccccc3c3ccnc-2c13 | 0.904 µM | –
3 | COC(=O)c1ccc(/C=C2\N=C(C)OC2=O)cc1 | – | > 100 µM
4 | CCOC(=O)CC1CCN(C(=O)c2ccccc2)C2Cc3c([nH]c4ccccc34)C12C[N+](=O)[O-] (stereo not given) | > 100 µM | –
5 | O=C(CC(c1ccccc1)N1CCCCC1)c1ccccc1 (stereo not given) | 27.3 µM | –
